SMILES strings stand for the structures. pIC50: −log10 of the molar value.

Usually pIC50 stands for the IC50 on a negative log10 scale, so that one unit is a factor of ten.

Assay [1] deals with Tyrosine-protein kinase JAK2 (Homo sapiens, UniProt O60674). Briefly: (§1) Biochemical HTRF Enzyme Assay Protocol: The basic assay protocol is as follows: First, 250 nL of diluted compounds in DMSO were dispensed into the wells of a dry 384-well Black plate (GreinerFluotrac™ catalog number: 781076; Greiner Bio-One GmbH, Frickenhausen, Germany) using a Labcyte Echo® 555 acoustic dispenser ([…], Sunnyvale, Calif., USA). Subsequent reagent additions employed an Agilent™ Bravo™ liquid handling system (Aligent Technologies, Santa Clara, Calif., USA). […] After equilibration, 2 μL of 10×ATP in 1× assay buffer was added to initiate the kinase reaction and the plates were shaken and then incubated at ambient temperature for 120 minutes. At the end of the incubation, 20 μL of 2× stop buffer (Streptavidin-Dylight 650/100 mL catalogue number: 8454B (Invitrogen™/Life Technologies/ThermoFisher Scientific Inc., Waltham, Mass., USA); Europium-tagged pY20 antibody (PerkinElmer™ catalogue number: AD0067 (PerkinElmer™, Waltham, Mass., USA)); EDTA; HEPES; and Triton™ X-100 (Sigma-Aldrich, St. Louis, Mo., USA) was added to quench the reaction. On the technique in general: Time-resolved FRET reads energy transfer from a long-lived donor to a nearby acceptor.

The target of assay [2] is Tyrosine-protein kinase JAK1 (Homo sapiens, UniProt P23458). The description is as §1.
Sequence of Tyrosine-protein kinase JAK1 (P23458 whole entry): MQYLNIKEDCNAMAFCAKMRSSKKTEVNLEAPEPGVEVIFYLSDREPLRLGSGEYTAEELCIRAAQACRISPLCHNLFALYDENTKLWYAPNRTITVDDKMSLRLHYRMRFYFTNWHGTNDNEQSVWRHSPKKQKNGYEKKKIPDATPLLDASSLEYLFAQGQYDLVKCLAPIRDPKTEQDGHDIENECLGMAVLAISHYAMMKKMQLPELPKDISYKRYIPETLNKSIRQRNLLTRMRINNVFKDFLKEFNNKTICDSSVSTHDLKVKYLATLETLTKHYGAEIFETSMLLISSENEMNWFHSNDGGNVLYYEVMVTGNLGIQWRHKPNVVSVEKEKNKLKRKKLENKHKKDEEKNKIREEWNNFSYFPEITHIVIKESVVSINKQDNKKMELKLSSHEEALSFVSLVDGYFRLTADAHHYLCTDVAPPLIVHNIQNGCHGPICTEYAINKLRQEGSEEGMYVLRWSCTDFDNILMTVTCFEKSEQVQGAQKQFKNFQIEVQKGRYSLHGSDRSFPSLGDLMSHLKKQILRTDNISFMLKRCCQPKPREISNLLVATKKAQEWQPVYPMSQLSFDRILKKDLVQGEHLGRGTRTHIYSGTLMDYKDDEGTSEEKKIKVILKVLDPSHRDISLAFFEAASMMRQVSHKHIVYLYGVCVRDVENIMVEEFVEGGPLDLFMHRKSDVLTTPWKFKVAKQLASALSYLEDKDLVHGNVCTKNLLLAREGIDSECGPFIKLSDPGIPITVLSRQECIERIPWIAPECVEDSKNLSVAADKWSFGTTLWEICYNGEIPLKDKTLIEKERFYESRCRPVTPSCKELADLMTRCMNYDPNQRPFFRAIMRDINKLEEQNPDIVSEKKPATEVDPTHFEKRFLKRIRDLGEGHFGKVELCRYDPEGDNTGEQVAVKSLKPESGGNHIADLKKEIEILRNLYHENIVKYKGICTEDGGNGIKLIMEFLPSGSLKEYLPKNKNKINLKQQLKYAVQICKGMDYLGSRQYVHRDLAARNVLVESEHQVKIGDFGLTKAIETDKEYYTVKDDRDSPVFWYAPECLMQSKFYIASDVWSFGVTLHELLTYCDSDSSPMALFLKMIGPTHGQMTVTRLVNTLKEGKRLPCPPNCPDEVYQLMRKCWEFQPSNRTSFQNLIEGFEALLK

Sequence of Tyrosine-protein kinase JAK2 (O60674 whole entry): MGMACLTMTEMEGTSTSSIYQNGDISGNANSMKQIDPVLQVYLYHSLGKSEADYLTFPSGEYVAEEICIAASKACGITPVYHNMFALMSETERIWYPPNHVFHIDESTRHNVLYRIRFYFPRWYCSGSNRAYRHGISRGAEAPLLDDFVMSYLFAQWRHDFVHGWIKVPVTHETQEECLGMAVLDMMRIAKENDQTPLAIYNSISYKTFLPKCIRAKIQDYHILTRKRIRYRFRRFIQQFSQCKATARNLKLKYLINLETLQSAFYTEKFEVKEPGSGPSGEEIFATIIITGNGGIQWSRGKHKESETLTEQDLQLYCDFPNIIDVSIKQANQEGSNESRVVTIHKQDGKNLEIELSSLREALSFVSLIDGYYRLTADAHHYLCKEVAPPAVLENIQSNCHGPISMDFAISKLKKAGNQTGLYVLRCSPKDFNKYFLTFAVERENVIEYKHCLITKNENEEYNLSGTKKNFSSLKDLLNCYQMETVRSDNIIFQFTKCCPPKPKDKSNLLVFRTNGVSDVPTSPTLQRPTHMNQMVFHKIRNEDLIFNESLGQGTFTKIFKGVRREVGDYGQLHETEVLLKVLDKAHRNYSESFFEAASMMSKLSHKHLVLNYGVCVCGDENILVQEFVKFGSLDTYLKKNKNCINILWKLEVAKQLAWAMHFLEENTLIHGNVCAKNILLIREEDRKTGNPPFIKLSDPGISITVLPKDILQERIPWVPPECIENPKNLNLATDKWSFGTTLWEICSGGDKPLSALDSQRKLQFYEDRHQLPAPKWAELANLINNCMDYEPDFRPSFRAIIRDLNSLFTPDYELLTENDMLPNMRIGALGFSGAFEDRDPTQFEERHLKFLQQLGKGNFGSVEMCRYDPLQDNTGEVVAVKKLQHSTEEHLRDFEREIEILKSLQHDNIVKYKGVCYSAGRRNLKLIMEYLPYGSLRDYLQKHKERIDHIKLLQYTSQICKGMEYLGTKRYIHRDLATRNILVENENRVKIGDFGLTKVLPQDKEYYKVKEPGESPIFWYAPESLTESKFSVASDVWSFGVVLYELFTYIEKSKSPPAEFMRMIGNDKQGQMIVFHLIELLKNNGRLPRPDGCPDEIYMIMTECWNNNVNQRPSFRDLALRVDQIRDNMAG

`N#C[C@H]1CCOC[C@@H]1n1cc(C(N)=O)c(Nc2ccc(OC(F)(F)F)cc2)n1`: the pIC50 in assay [1] was 8.87; in assay [2], 9.80. In assay [2], `N#C[C@H]1CCOC[C@@H]1n1cc(C(N)=O)c(Nc2ccc(Cl)c(Cl)c2)n1` had a pIC50 of 8.68.

Values taken from ChEMBL document CHEMBL5727955, “Aminopyrazoles as janus kinase inhibitors” (2020).
